Source: US20080255139A1, “Use Of 4- (4-Methylpiperazin-1-Ylmethyl)-N-[4-Methyl-3-(4-(Pyridin-3-Yl)Pyrimidin-2-Ylamino)Phenyl]-Benzamide to Inhibit the Tyrosine Kinase Receptor C-Fms” (priority 2004, published 2008)
Entries after “also recorded” stand apart in the source; their conditions may differ. Where two headings read alike, the source gives them in different places.

Assays:
[1] = test system: M-CSF production by the cultured monocytes; assay: M-CSF ELISA on GM-CSF stimulated monocyte cultures; format: cell-based, human
Experimental: M-CSF ELISA. Monocytes are isolated from buffy coats from normal donors, as previously described, e.g. in Dewar A et al., 2003, Leukemia 17:1713-21. Monocyte cultures (1×10^5/mL) are established in 24 well plates in serum deprived medium (SDM; IMDM/1% BSA supplemented with 2 mM L-glutamine, 200 μg/mL transferrin, 10 μg/mL insulin (Actrapid®, Novo Nordisk), 10^−4 M β-mercaptoethanol, 50 μg/mL low density lipoproteins (Sigma)) and stimulated with 20 ng/mL GM-CSF. Supernatants are harvested at 24 h intervals for 5 days, and analysed for M-CSF using an R&D Systems DuoSete ELISA development system according to the manufacturers instructions.

[2] = test system: FDC-cfms cells; settings: for Cell count, IL-3, 12 H: 0 μM control 125433; for Cell count, IL-3, 24 H: 0 μM control 257726; for Cell count, IL-3, 48 H: 0 μM control 1123171
[3] = test system: FDC-cfms cells (M-CSF dependent, c-fms); settings: for Cell count, M-CSF, 12 H: 0 μM control 132174; for Cell count, M-CSF, 24 H: 0 μM control 310859; for Cell count, M-CSF, 48 H: 0 μM control 1453642
[4] = test system: FDC-cfms cells (M-CSF dependent, c-fms); assay: cells; settings: 12 h, read-out: inhibition of cell growth, M-CSF sole stimulation

SMILES: Cc1ccc(NC(=O)c2ccc(CN3CCN(C)CC3)cc2)cc1Nc1nccc(-c2cccnc2)n1 [Compound I, 4-(4-methylpiperazin-1-ylmethyl)-N-[4-methyl-3-(4-(pyridin-3-yl)pyrimidin-2-ylamino)phenyl]-benzamide]
- effect on M-CSF production by the cultured monocytes ([1]; 1.0 μM Compound I, GM-CSF 20 ng/mL): no effect
- decrease in M-CSF production ([1]; 5.0 μM, GM-CSF stimulated monocytes): 30%
- effect on cell growth, IL-3 stimulated control cultures ([2]; 12 or 24 h, 0.5-5.0 μM Compound I): no Compound I-specific effects on cell growth; also recorded: No effect
- Cell count, IL-3, 12 H ([2]; Compound I 0.5 μM): 131724 cells/mL
- Cell count, IL-3, 24 H ([2]; Compound I 0.5 μM): 281975 cells/mL
- Cell count, IL-3, 48 H ([2]; Compound I 0.5 μM): 1107666 cells/mL
- Cell count, IL-3, 12 H ([2]; Compound I 1 μM): 126472 cells/mL
- Cell count, IL-3, 24 H ([2]; Compound I 1 μM): 264007 cells/mL
- Cell count, IL-3, 48 H ([2]; Compound I 1 μM): 1068150 cells/mL
- Cell count, IL-3, 12 H ([2]; Compound I 5 μM): 106917 cells/mL
- Cell count, IL-3, 24 H ([2]; Compound I 5 μM): 197435 cells/mL
- Cell count, IL-3, 48 H ([2]; Compound I 5 μM): 682771 cells/mL
- Cell count, IL-3, 12 H ([2]; Compound I […]): 131857 cells/mL
- Cell count, IL-3, 24 H ([2]; Compound I […]): 247613 cells/mL
- Cell count, IL-3, 48 H ([2]; Compound I […]): 940233 cells/mL
- cell counts, M-CSF ([3]; 24 h, 5.0 μM Compound I): lower than seeded values
- Cell count, M-CSF, 12 H ([3]; Compound I 0.5 μM): 133296 cells/mL
- Cell count, M-CSF, 24 H ([3]; Compound I 0.5 μM): 339185 cells/mL
- Cell count, M-CSF, 48 H ([3]; Compound I 0.5 μM): 1577777 cells/mL
- Cell count, M-CSF, 12 H ([3]; Compound I 1 μM): 130010 cells/mL
- Cell count, M-CSF, 24 H ([3]; Compound I 1 μM): 311035 cells/mL
- Cell count, M-CSF, 48 H ([3]; Compound I 1 μM): 1362802 cells/mL
- Cell count, M-CSF, 12 H ([3]; Compound I 5 μM): 68324 cells/mL
- Cell count, M-CSF, 24 H ([3]; Compound I 5 μM): 20830 cells/mL
- Cell count, M-CSF, 48 H ([3]; Compound I 5 μM): 20149 cells/mL
- Cell count, M-CSF, 12 H ([3]; Compound I […]): 117025 cells/mL
- Cell count, M-CSF, 24 H ([3]; Compound I […]): 174818 cells/mL
- Cell count, M-CSF, 48 H ([3]; Compound I […]): 295134 cells/mL
- inhibition at 5 µM [4]: 50%
